Laboratory results taken from ChEMBL document CHEMBL1201862, “PubChem BioAssay data set” (2004).
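Protocol summary: plate cells (96-well), add compound at 5 concentrations, incubate 48 h, interpolate endpoints linearly. Abbreviation: GI50, concentration required for 50% inhibition of growth.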 The source made the active and inactive calls. Rule as the data show it: active = GI50 up to about 1.1 µM and inactive = higher.

Assays:
Experiment in all cases: NCI anticancer screen, dose series, 48 h
[1] = test system: HOP-62
[2] = test system: SK-MEL-28
[3] = test system: HCT-116
[4] = test system: TK-10
[5] = test system: Malme-3M
[6] = test system: SF-539
[7] = test system: MDA-MB-435
[8] = test system: COLO 205
[9] = test system: IGROV-1
[10] = test system: NCI-H460
[11] = test system: NCI-H23
[12] = test system: U-251
[13] = test system: ACHN
[14] = test system: OVCAR-5
[15] = test system: LOX IMVI
[16] = test system: NCI/ADR-RES
[17] = test system: OVCAR-4
[18] = test system: CCRF-CEM
[19] = test system: SK-MEL-2
[20] = test system: SNB-75
[21] = test system: SK-OV-3
[22] = test system: SK-MEL-5
[23] = test system: SR
[24] = test system: HL-60
[25] = test system: Hs-578T
[26] = test system: HT-29
[27] = test system: PC-3
[28] = test system: RXF 393
[29] = test system: CAKI-1
[30] = test system: RPMI-8226
[31] = test system: MDA-N
[32] = test system: NCI-H226
[33] = test system: HOP-92
[34] = test system: UACC-62
[35] = test system: HCT-15
[36] = test system: MCF7
[37] = test system: MDA-MB-231
[38] = test system: MOLT-4
[39] = test system: EKVX
[40] = test system: A549
[41] = test system: KM12
[42] = test system: BT-549
[43] = test system: T47D
[44] = test system: K562
[45] = test system: SF-268
[46] = test system: NCI-H522
[47] = test system: HCC 2998
[48] = test system: SN12C
[49] = test system: UO-31
[50] = test system: M14
[51] = test system: SW-620
[52] = test system: 786-0
[53] = test system: OVCAR-8
[54] = test system: A498
[55] = test system: SF-295
[56] = test system: SNB-19
[57] = test system: OVCAR-3
[58] = test system: DU-145
[59] = test system: UACC-257

## CCOC(=O)c1ccc(NC2Oc3cc4c(cc3C(c3cc(OC)c(OC)c(OC)c3)C2C)OCO4)cc1 (stereo unspecified)
[1]
  GI50: 0.789 µM (active)
[2]
  GI50: 32.4 µM (inactive)
[3]
  GI50: 0.465 µM (active)
[4]
  GI50: 15.6 µM (inactive)
[5]
  GI50: 0.216 µM (active)
[6]
  GI50: 0.271 µM (active)
[7]
  GI50: 0.148 µM (active)
[8]
  GI50: 0.236 µM (active)
[9]
  GI50: 0.48 µM (active)
[10]
  GI50: 0.445 µM (active)
[11]
  GI50: 0.695 µM (active)
[12]
  GI50: 0.433 µM (active)
[13]
  GI50: 0.769 µM (active)
[14]
  GI50: 3.94 µM (inactive)
[15]
  GI50: 0.61 µM (active)
[16]
  GI50: 0.369 µM (active)
[17]
  GI50: 0.649 µM (active)
[18]
  GI50: 0.371 µM (active)
[19]
  GI50: 0.675 µM (active)
[20]
  GI50: 0.304 µM (active)
[21]
  GI50: 0.483 µM (active)
[22]
  GI50: 0.294 µM (active)
[23]
  GI50: 0.296 µM (active)
[24]
  GI50: 0.209 µM (active)
[25]
  GI50: 1.24 µM (inactive)
[26]
  GI50: 0.31 µM (active)
[27]
  GI50: 0.376 µM (active)
[28]
  GI50: 0.552 µM (active)
[29]
  GI50: 0.325 µM (active)
[30]
  GI50: 0.296 µM (active)
[31]
  GI50: 0.186 µM (active)
[32]
  GI50: 1.51 µM (inactive)
[33]
  GI50: 0.938 µM (active)
[34]
  GI50: 0.46 µM (active)
[35]
  GI50: 0.506 µM
[36]
  GI50: 0.402 µM (active)
[37]
  GI50: 0.516 µM (active)
[38]
  GI50: 0.41 µM (active)
[39]
  GI50: 4.24 µM (inactive)
[40]
  GI50: 0.847 µM (active)
[41]
  GI50: 0.396 µM (active)
[42]
  GI50: 0.474 µM (active)
[43]
  GI50: 0.486 µM (active)
[44]
  GI50: 0.329 µM (active)
[45]
  GI50: 0.675 µM (active)
[46]
  GI50: 0.416 µM (active)
[47]
  GI50: 2.13 µM (inactive)
[48]
  GI50: 1.35 µM (inactive)
[49]
  GI50: 0.351 µM (active)
[50]
  GI50: 0.522 µM (active)
[51]
  GI50: 0.339 µM (active)
[52]
  GI50: 0.556 µM (active)
[53]
  GI50: 0.935 µM (active)
[54]
  GI50: 0.566 µM (active)
[55]
  GI50: 0.269 µM (active)
[56]
  GI50: 0.617 µM (active)
[57]
  GI50: 0.352 µM (active)
[58]
  GI50: 0.48 µM (active)

## Cc1nc2ccccc2n1C(=O)c1c(F)c(F)c(F)c(F)c1F
[1]
  GI50: 23.9 µM (inactive)
[2]
  GI50: 29.4 µM (inactive)
[3]
  GI50: 4.14 µM (inactive)
[4]
  GI50: 18.3 µM (inactive)
[5]
  GI50: 19.8 µM (inactive)
[6]
  GI50: 11.6 µM (inactive)
[7]
  GI50: 4.99 µM (inactive)
[8]
  GI50: 14.8 µM (inactive)
[9]
  GI50: 19.1 µM (inactive)
[10]
  GI50: 5.09 µM (inactive)
[59]
  GI50: 13.7 µM (inactive)
[11]
  GI50: 17 µM (inactive)
[12]
  GI50: 19 µM (inactive)
[13]
  GI50: 22.9 µM (inactive)
[14]
  GI50: 19 µM (inactive)
[15]
  GI50: 8.93 µM (inactive)
[16]
  GI50: 17.5 µM (inactive)
[17]
  GI50: 14.5 µM (inactive)
[18]
  GI50: 5.12 µM (inactive)
[19]
  GI50: 7.41 µM (inactive)
[20]
  GI50: 25.4 µM (inactive)
[21]
  GI50: 22.3 µM (inactive)
[22]
  GI50: 12.1 µM (inactive)
[23]
  GI50: 2.34 µM (inactive)
[24]
  GI50: 4.49 µM (inactive)
[25]
  GI50: 26.5 µM (inactive)
[26]
  GI50: 4.98 µM (inactive)
[27]
  GI50: 17.5 µM (inactive)
[28]
  GI50: 15.5 µM (inactive)
[29]
  GI50: 16.7 µM (inactive)
[30]
  GI50: 4.15 µM (inactive)
[31]
  GI50: 8.69 µM (inactive)
[32]
  GI50: 18.8 µM (inactive)
[33]
  GI50: 11.7 µM (inactive)
[34]
  GI50: 16.1 µM (inactive)
[35]
  GI50: 11.2 µM
[36]
  GI50: 5.12 µM (inactive)
[37]
  GI50: 16.2 µM (inactive)
[38]
  GI50: 4.07 µM (inactive)
[39]
  GI50: 28.3 µM (inactive)
[40]
  GI50: 30.4 µM (inactive)
[41]
  GI50: 3.13 µM (inactive)
[42]
  GI50: 21 µM (inactive)
[43]
  GI50: 59.8 µM (inactive)
[44]
  GI50: 5.48 µM (inactive)
[45]
  GI50: 27 µM (inactive)
[46]
  GI50: 3.01 µM (inactive)
[47]
  GI50: 17.6 µM (inactive)
[48]
  GI50: 6.01 µM (inactive)
[49]
  GI50: 17 µM (inactive)
[50]
  GI50: 10.8 µM (inactive)
[51]
  GI50: 5.09 µM (inactive)
[53]
  GI50: 17.7 µM (inactive)
[54]
  GI50: 20.3 µM (inactive)
[55]
  GI50: 28.8 µM (inactive)
[56]
  GI50: 29.5 µM (inactive)
[57]
  GI50: 24.3 µM (inactive)
[58]
  GI50: 26.5 µM (inactive)
